Measurements as given in patent US20210402016A1, “RADIOLABELED BOMBESIN-DERIVED COMPOUNDS FOR IN VIVO IMAGING OF GASTRIN-RELEASING PEPTIDE RECEPTOR (GRPR) AND TREATMENT OF GRPR-RELATED DISORDERS” (Provincial Health Services Authority, priority 2018, published 2021).
Where two headings read alike, the source gives them in different places.

Tests used:
[1] = test system: PC-3 xenograft bearing mice; details: PET/CT, PC-3 tumor-bearing mice
Procedure: Animal experiments were approved by the Animal Ethics Committee of the University of British Columbia.
Mice were sedated and scanned (Siemens Inveon microPET/CT) with body temperature maintained by heating pad. […] PET data were acquired in list mode, reconstructed using 3-dimensional ordered-subsets expectation maximization (2 iterations) followed by a fast maximum a priori algorithm (18 iterations) with CT-based attenuation correction. Images were analyzed using the Inveon Research Workplace software (Siemens Healthineers).

[2] = measured at 5 min and 15 min p.i., mice, radio-HPLC
Source text: ^68Ga-ProBOMB2 (5.9±0.3 MBq) was intravenously injected into four male NSG mice. After a 5-min and 15-min uptake period, two mice were sedated/euthanized at each timepoint, and blood was collected. The plasma was extracted from whole blood with acetonitrile, vortexed, and the supernatant separated.

[3] = Biodistribution in PC-3 tumor-bearing NSG mice (Example 2); type: in vivo; details: male, NSG (NOD.Cg-Prkdc^scid Il2rg^tm1Wjl/SzJ), mouse, iv, total radioactivity; for tissue uptake at 2 h / tissue to tissue ratio at 2 h: 120 MIN p.i.
Procedure: (§1) […]. The mice were sacrificed by CO2 inhalation at 1 h, and 2 h p.i. Blood was collected by cardiac puncture. Organs/tissues were harvested, rinsed with PBS, blotted dry, and weighed. The activity in tissues was assayed by gamma counter and expressed as the percentage injected dose per gram of tissue (% ID/g).

[4] = test system: PC-3 xenograft bearing mice; experiment: as above; type: in vivo
Procedure: as §1

CC(C)C[C@@H](CN1CCC[C@H]1C(N)=O)NC(=O)[C@H](Cc1c[nH]cn1)NC(=O)CNC(=O)[C@@H](NC(=O)[C@H](C)NC(=O)[C@H](Cc1c[nH]c2ccccc12)NC(=O)[C@H](CCC(N)=O)NC(=O)[C@@H](Cc1ccccc1)NC(=O)CN1CCC(NC(=O)CN2CCN(CC(=O)O)CCN(CC(=O)O)CCN(CC(=O)O)CC2)CC1)C(C)C [^68Ga-ProBOMB2, metal not drawn]
Clearance pathway [1]: primarily cleared through the renal pathway | Intact in plasma [2]: 89% | tissue uptake at 1 h ([3]; PC-3 tumor, 60 MIN BLOCKED, co-injection of 100 μg of [D-Phe^6,Leu-NHEt^13,des-Met^14]Bombesin(6-14), read-out: Biodistribution PC3 TUMOR, Mean): 3.77 %ID/g | tissue uptake at 1 h ([3]; PC-3 tumor, 60 MIN p.i., read-out: Biodistribution PC3 TUMOR, Mean): 10.8 %ID/g | tissue uptake at 2 h ([3]; PC-3 tumor, read-out: Biodistribution PC3 TUMOR, Mean): 8.79 %ID/g | tissue uptake at 1 h ([3]; adrenal glands, 60 MIN BLOCKED, co-injection of 100 μg of [D-Phe^6,Leu-NHEt^13,des-Met^14]Bombesin(6-14), read-out: Biodistribution ADRENAL GLANDS, Mean): 0.32 %ID/g | tissue uptake at 1 h ([3]; adrenal glands, 60 MIN p.i., read-out: Biodistribution ADRENAL GLANDS, Mean): 0.76 %ID/g | tissue uptake at 2 h ([3]; adrenal glands, read-out: Biodistribution ADRENAL GLANDS, Mean): 0.47 %ID/g | tissue uptake at 1 h ([3]; bone, 60 MIN BLOCKED, co-injection of 100 μg of [D-Phe^6,Leu-NHEt^13,des-Met^14]Bombesin(6-14), read-out: Biodistribution BONE, Mean): 0.13 %ID/g | tissue uptake at 1 h ([3]; bone, 60 MIN p.i., read-out: Biodistribution BONE, Mean): 0.15 %ID/g | tissue uptake at 2 h ([3]; bone, read-out: Biodistribution BONE, Mean): 0.06 %ID/g | tissue uptake at 1 h ([3]; brain, 60 MIN BLOCKED, co-injection of 100 μg of [D-Phe^6,Leu-NHEt^13,des-Met^14]Bombesin(6-14), read-out: Biodistribution BRAIN, Mean): 0.02 %ID/g | tissue uptake at 1 h ([3]; brain, 60 MIN p.i., read-out: Biodistribution BRAIN, Mean): 0.02 %ID/g | tissue uptake at 2 h ([3]; brain, read-out: Biodistribution BRAIN, Mean): 0.01 %ID/g | tissue uptake at 1 h ([3]; fat, 60 MIN BLOCKED, co-injection of 100 μg of [D-Phe^6,Leu-NHEt^13,des-Met^14]Bombesin(6-14), read-out: Biodistribution FAT, Mean): 0.08 %ID/g | tissue uptake at 1 h ([3]; fat, 60 MIN p.i., read-out: Biodistribution FAT, Mean): 0.06 %ID/g | tissue uptake at 2 h ([3]; fat, read-out: Biodistribution FAT, Mean): 0.02 %ID/g | tissue uptake at 1 h ([3]; heart, 60 MIN BLOCKED, co-injection of 100 μg of [D-Phe^6,Leu-NHEt^13,des-Met^14]Bombesin(6-14), read-out: Biodistribution HEART, Mean): 0.16 %ID/g | tissue uptake at 1 h ([3]; heart, 60 MIN p.i., read-out: Biodistribution HEART, Mean): 0.18 %ID/g | tissue uptake at 2 h ([3]; heart, read-out: Biodistribution HEART, Mean): 0.05 %ID/g | tissue uptake at 1 h ([3]; intestine, 60 MIN BLOCKED, co-injection of 100 μg of [D-Phe^6,Leu-NHEt^13,des-Met^14]Bombesin(6-14), read-out: Biodistribution INTESTINE, Mean): 0.34 %ID/g | tissue uptake at 1 h ([3]; intestine, 60 MIN p.i., read-out: Biodistribution INTESTINE, Mean): 0.46 %ID/g | tissue uptake at 2 h ([3]; intestine, read-out: Biodistribution INTESTINE, Mean): 0.19 %ID/g | tissue uptake at 1 h ([3]; kidney, 60 MIN BLOCKED, co-injection of 100 μg of [D-Phe^6,Leu-NHEt^13,des-Met^14]Bombesin(6-14), read-out: Biodistribution KIDNEY, Mean): 2.22 %ID/g | tissue uptake at 1 h ([3]; kidney, 60 MIN p.i., read-out: Biodistribution KIDNEY, Mean): 1.81 %ID/g | tissue uptake at 2 h ([3]; kidney, read-out: Biodistribution KIDNEY, Mean): 1.27 %ID/g | tissue uptake at 1 h ([3]; liver, 60 MIN BLOCKED, co-injection of 100 μg of [D-Phe^6,Leu-NHEt^13,des-Met^14]Bombesin(6-14), read-out: Biodistribution LIVER, Mean): 0.57 %ID/g | tissue uptake at 1 h ([3]; liver, 60 MIN p.i., read-out: Biodistribution LIVER, Mean): 0.43 %ID/g | tissue uptake at 2 h ([3]; liver, read-out: Biodistribution LIVER, Mean): 0.29 %ID/g | tissue uptake at 1 h ([3]; lungs, 60 MIN BLOCKED, co-injection of 100 μg of [D-Phe^6,Leu-NHEt^13,des-Met^14]Bombesin(6-14), read-out: Biodistribution LUNGS, Mean): 0.41 %ID/g | tissue uptake at 1 h ([3]; lungs, 60 MIN p.i., read-out: Biodistribution LUNGS, Mean): 0.39 %ID/g | tissue uptake at 2 h ([3]; lungs, read-out: Biodistribution LUNGS, Mean): 0.13 %ID/g | tissue uptake at 1 h ([3]; muscle, 60 MIN BLOCKED, co-injection of 100 μg of [D-Phe^6,Leu-NHEt^13,des-Met^14]Bombesin(6-14), read-out: Biodistribution MUSCLE, Mean): 0.09 %ID/g | tissue uptake at 1 h ([3]; muscle, 60 MIN p.i., read-out: Biodistribution MUSCLE, Mean): 0.15 %ID/g | tissue uptake at 2 h ([3]; muscle, read-out: Biodistribution MUSCLE, Mean): 0.03 %ID/g | tissue uptake at 1 h ([3]; pancreas, Biodistribution PANCREAS, Mean, 60 MIN BLOCKED, co-injection of 100 μg of [D-Phe^6,Leu-NHEt^13,des-Met^14]Bombesin(6-14), read-out: Biodistribution […], Mean): 0.62 %ID/g | tissue uptake at 1 h ([3]; pancreas, Biodistribution PANCREAS, Mean, 60 MIN p.i., read-out: Biodistribution […], Mean): 1.2 %ID/g | tissue uptake at 2 h ([3]; pancreas, Biodistribution PANCREAS, Mean, read-out: Biodistribution […], Mean): 0.3 %ID/g | tissue uptake at 1 h ([3]; seminal, 60 MIN BLOCKED, co-injection of 100 μg of [D-Phe^6,Leu-NHEt^13,des-Met^14]Bombesin(6-14), read-out: Biodistribution SEMINAL, Mean): 1.95 %ID/g | tissue uptake at 1 h ([3]; seminal, 60 MIN p.i., read-out: Biodistribution SEMINAL, Mean): 2.44 %ID/g | tissue uptake at 2 h ([3]; seminal, read-out: Biodistribution SEMINAL, Mean): 1.63 %ID/g | tissue uptake at 1 h ([3]; spleen, 60 MIN BLOCKED, co-injection of 100 μg of [D-Phe^6,Leu-NHEt^13,des-Met^14]Bombesin(6-14), read-out: Biodistribution SPLEEN, Mean): 0.33 %ID/g | tissue uptake at 1 h ([3]; spleen, 60 MIN p.i., read-out: Biodistribution SPLEEN, Mean): 0.27 %ID/g | tissue uptake at 2 h ([3]; spleen, read-out: Biodistribution SPLEEN, Mean): 0.11 %ID/g | tissue uptake at 1 h ([3]; stomach, 60 MIN BLOCKED, co-injection of 100 μg of [D-Phe^6,Leu-NHEt^13,des-Met^14]Bombesin(6-14), read-out: Biodistribution STOMACH, Mean): 0.07 %ID/g | tissue uptake at 1 h ([3]; stomach, 60 MIN p.i., read-out: Biodistribution STOMACH, Mean): 0.19 %ID/g | tissue uptake at 2 h ([3]; stomach, read-out: Biodistribution STOMACH, Mean): 0.06 %ID/g | tissue uptake at 1 h ([3]; testes, 60 MIN BLOCKED, co-injection of 100 μg of [D-Phe^6,Leu-NHEt^13,des-Met^14]Bombesin(6-14), read-out: Biodistribution TESTES, Mean): 0.21 %ID/g | tissue uptake at 1 h ([3]; testes, 60 MIN p.i., read-out: Biodistribution TESTES, Mean): 0.16 %ID/g | tissue uptake at 2 h ([3]; testes, read-out: Biodistribution TESTES, Mean): 0.07 %ID/g | tissue to tissue ratio at 1 h ([3]; tumor/blood, 60 MIN p.i., read-out: TUMOR-TO-BLOOD ratio, Mean): 22.2 | tissue to tissue ratio at 2 h ([3]; tumor/blood, read-out: TUMOR-TO-BLOOD ratio, Mean): 75.3 | tissue to tissue ratio at 1 h ([3]; tumor/bone, 60 MIN BLOCKED, co-injection of 100 μg of [D-Phe^6,Leu-NHEt^13,des-Met^14]Bombesin(6-14), read-out: TUMOR-TO-BONE ratio, Mean): 39.8 | tissue to tissue ratio at 1 h ([3]; tumor/bone, 60 MIN p.i., read-out: TUMOR-TO-BONE ratio, Mean): 89.9 | tissue to tissue ratio at 2 h ([3]; tumor/bone, read-out: TUMOR-TO-BONE ratio, Mean): 173 | tissue to tissue ratio at 1 h ([3]; tumor/kidney, 60 MIN BLOCKED, co-injection of 100 μg of [D-Phe^6,Leu-NHEt^13,des-Met^14]Bombesin(6-14), read-out: TUMOR-TO-KIDNEY ratio, Mean): 1.77 | tissue to tissue ratio at 1 h ([3]; tumor/kidney, 60 MIN p.i., read-out: TUMOR-TO-KIDNEY ratio, Mean): 6.03 | tissue to tissue ratio at 2 h ([3]; tumor/kidney, read-out: TUMOR-TO-KIDNEY ratio, Mean): 6.96 | tissue to tissue ratio at 1 h ([3]; tumor/liver, 60 MIN BLOCKED, co-injection of 100 μg of [D-Phe^6,Leu-NHEt^13,des-Met^14]Bombesin(6-14), read-out: TUMOR-TO-LIVER ratio, Mean): 7.33 | tissue to tissue ratio at 1 h ([3]; tumor/liver, 60 MIN p.i., read-out: TUMOR-TO-LIVER ratio, Mean): 26.2 | tissue to tissue ratio at 2 h ([3]; tumor/liver, read-out: TUMOR-TO-LIVER ratio, Mean): 35 | tissue to tissue ratio at 1 h ([3]; tumor/muscle, 60 MIN BLOCKED, co-injection of 100 μg of [D-Phe^6,Leu-NHEt^13,des-Met^14]Bombesin(6-14), read-out: TUMOR-TO-MUSCLE ratio, Mean): 44 | tissue to tissue ratio at 1 h ([3]; tumor/muscle, 60 MIN p.i., read-out: TUMOR-TO-MUSCLE ratio, Mean): 102 | tissue to tissue ratio at 2 h ([3]; tumor/muscle, read-out: TUMOR-TO-MUSCLE ratio, Mean): 411 | tissue to tissue ratio at 1 h ([3]; tumor/pancreas, TUMOR-TO-PANCREAS ratio, Mean, 60 MIN BLOCKED, co-injection of 100 μg of [D-Phe^6,Leu-NHEt^13,des-Met^14]Bombesin(6-14), read-out: TUMOR-TO-[…] ratio, Mean): 6.17 | tissue to tissue ratio at 1 h ([3]; tumor/pancreas, TUMOR-TO-PANCREAS ratio, Mean, 60 MIN p.i., read-out: TUMOR-TO-[…] ratio, Mean): 9.32 | tissue to tissue ratio at 2 h ([3]; tumor/pancreas, TUMOR-TO-PANCREAS ratio, Mean, read-out: TUMOR-TO-[…] ratio, Mean): 31.1 | tissue uptake at 1 h ([3]; whole blood, 60 MIN BLOCKED, co-injection of 100 μg of [D-Phe^6,Leu-NHEt^13,des-Met^14]Bombesin(6-14), read-out: Biodistribution BLOOD, Mean): 0.53 %ID/g | tissue uptake at 1 h ([3]; whole blood, 60 MIN p.i., read-out: Biodistribution BLOOD, Mean): 0.49 %ID/g | tissue uptake at 2 h ([3]; whole blood, read-out: Biodistribution BLOOD, Mean): 0.13 %ID/g | TUMOR-TO-BLOOD ratio, Mean ([4]; 60 MIN BLOCKED, co-injection of 100 μg of [D-Phe^6,Leu-NHEt^13,des-Met^14]Bombesin(6-14)): 7.23 | Decrease of average uptake in tumors by co-injection of [D-Phe^6, Leu-NHEt^13, des-Met^14]Bombesin(6-14) ([4]; PC-3 tumors, 60 min p.i., 100 μg blocker): 65%
